Laboratory results published in patent US20080207544A1, “Compositions And Methods For Delivery Of Agents Into Cells” (priority 2005, published 2008).

What was measured:
[1] = test system: RG2 cells; experiment: Luciferase gene transfer activity of modified lipoplexes in RG2 cells; type: cell-based, rat; conditions: 48 hours, 1 μg per well
Protocol: FIG. 12. In vitro gene transfer activity of lipoplexes modified with different lipids. Complexes with DOPE-MPB-Cys, DOPE or CXCR4-lipopeptide were incubated with RG2 cells (1 μg pLC0888/well). Each point is an average of three wells ±SD.
Preparation of lipoplexes. The lipid-based transfection-reagent (Genzyme lipid 89:Lym-X-Sorb:Vitamin E 10:89:1) was prepared aseptically by mixing 8 μl of Genzyme lipid 89 (25 mg/ml in chloroform or 0.038 μmoles/μl) (Genzyme, Cambridge, Mass.); 7.5 μl Lym-X-Sorb (138 mg/ml in chloroform or 0.365 μmoles/μl) (Avanti Polar Lipids, Birmingham, Ala.) and 2.2 μl Vitamin E (5.905 mg/ml or 0.0137 μmoles/μl) (Sigma, St Louis, Mo.) in a clean reagent-tube. Once the lipids were thoroughly mixed the solvent was evaporated using argon. Residual solvent was removed by placing the vial under a vacuum in the desiccator for 30 mins. The dried lipid-film was hydrated with 3 ml of HEPES Buffered Saline (HBS; 7.5 mM HEPES, 150 mM NaCl). After hydration the transfection-mixture was bath-sonicated for 5 minutes. […]
Luciferase-Assay. […] 150 μl of lysisbuffer (0.1 M potassium phosphate buffer; 1% Tx-100; 1 mM DTT; 2 mM EDTA; pH=7.8) (Sigma, St. Louis, Mo.) was added to each well and the plate was stored at −80° C. for 10 minutes or until ready to be assayed. […]

[2] = test system: B16 melanoma cells; experiment: Luciferase transfection of B16 cells with FGF receptor targeted lipoplexes; type: cell-based; conditions: same experimental conditions as RG2
Protocol: FIG. 13. Transfection of B16 cells by implementation of FGF receptor targeted lipoplexes. Transfection With CXCR4-ligand targeted lipoplexes leads to increased transfection-efficiency in vitro. Whether increased specific binding to cells expressing the targeted receptor leads to increased transfection-efficiency in vitro is tested by transfecting cells with targeted and untargeted lipoplexes expressing the reporter-enzyme luciferase. Many tumor cell-lines express CXCR4, including the RG2 cell-line (as confirmed by flow cytometry; data not shown). These cells are efficiently transfected with lipoplexes prepared as described in the materials and methods section. Transfection of cells with untargeted lipoplexes coding for GFP at a dose of 1 μg DNA per 50,000 cells typically leads to a 30-40% transfection-efficiency after 48 hours (data not shown). However, whenever the lipid-composition of the optimized formulation was changed by titrating in cysteine-modified DOPE-MPB (DOPE-MPB-Cys) or DOPE instead of Lym-X-Sorb (i.e. modification of helper-lipids); the transfection-efficiency decreased steadily. Even at low concentrations of DOPE-MPB-Cys and DOPE (1 molepercent) transfection-efficiency as measured by luciferase-expression after 48 hours (1 μg per well) was decreased by about 30% (100% being 4*10^4 RLU equivalent to 35 ng recombinant luciferase per well). […]

SMILES: CCCCCCCC/C=C\CCCCCCCC(=O)OC[C@H](COP(=O)(O)OCCN)OC(=O)CCCCCCC/C=C\CCCCCCCC [DOPE]
- decrease of transfection-efficiency as measured by luciferase-expression ([1]; 1 molepercent modification-lipid instead of Lym-X-Sorb): about 30%
- transfection-efficiency (luciferase) ([1]; 20 molepercent modification-lipid): 3.9±1.1 % of control
- luciferase expression / transfection efficiency as a function of mol % of modifier lipid [2]: decreased luciferase expression
